Experimental data taken from ChEMBL document CHEMBL1909046, “DrugMatrix in vitro pharmacology data”.

Columns and labels:
[1] = biological target: T1, Alpha-1D adrenergic receptor (Homo sapiens, UniProt P25100); assay type: cell membranes, HEK293, Membrane; note: in other assays of this panel Not Active means under 50% inhibition at 10 µM
T1 sequence (P25100 whole entry): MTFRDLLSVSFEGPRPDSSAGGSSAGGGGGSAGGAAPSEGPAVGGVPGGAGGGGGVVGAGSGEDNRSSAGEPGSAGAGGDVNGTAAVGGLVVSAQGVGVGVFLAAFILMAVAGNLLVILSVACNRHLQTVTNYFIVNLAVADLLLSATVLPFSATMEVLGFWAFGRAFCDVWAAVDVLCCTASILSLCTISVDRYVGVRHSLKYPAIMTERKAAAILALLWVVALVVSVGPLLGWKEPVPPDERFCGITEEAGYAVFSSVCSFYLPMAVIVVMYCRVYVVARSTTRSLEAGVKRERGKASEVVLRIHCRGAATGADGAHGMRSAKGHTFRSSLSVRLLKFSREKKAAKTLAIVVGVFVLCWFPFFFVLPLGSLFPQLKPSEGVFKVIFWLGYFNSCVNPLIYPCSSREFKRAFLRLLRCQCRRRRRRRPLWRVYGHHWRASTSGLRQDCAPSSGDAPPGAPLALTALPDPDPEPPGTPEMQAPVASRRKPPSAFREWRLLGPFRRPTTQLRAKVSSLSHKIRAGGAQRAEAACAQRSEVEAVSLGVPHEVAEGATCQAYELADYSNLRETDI

[2] = biological target: Beta-1 adrenergic receptor (Homo sapiens, UniProt P08588); assay: DRUGMATRIX: Adrenergic beta1 radioligand binding (ligand: [125I] Cyanopindolol); assay type: cell membranes, CHO-K1, Membrane; details: Not Active = under 50% inhibition at 10 µM
Chain of Beta-1 adrenergic receptor (P08588 whole entry): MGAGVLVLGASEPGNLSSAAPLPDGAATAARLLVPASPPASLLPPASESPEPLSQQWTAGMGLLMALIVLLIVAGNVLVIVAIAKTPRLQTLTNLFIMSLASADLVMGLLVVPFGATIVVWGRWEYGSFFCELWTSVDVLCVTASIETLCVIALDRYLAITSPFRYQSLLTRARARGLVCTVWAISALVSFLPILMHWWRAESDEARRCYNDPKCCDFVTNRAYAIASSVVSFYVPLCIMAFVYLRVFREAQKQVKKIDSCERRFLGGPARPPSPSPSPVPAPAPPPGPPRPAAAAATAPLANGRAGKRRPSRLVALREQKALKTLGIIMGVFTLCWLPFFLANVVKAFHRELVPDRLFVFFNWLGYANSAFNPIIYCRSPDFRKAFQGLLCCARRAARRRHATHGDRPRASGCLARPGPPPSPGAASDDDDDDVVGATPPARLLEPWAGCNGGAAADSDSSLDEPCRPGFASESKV

[3] = DRUGMATRIX: Calcium Channel Type L, Benzothiazepine radioligand binding (ligand: [3H] Diltiazem); assay type: cell membranes, Rattus norvegicus, Wistar, Brain, Membrane; details: Not Active = under 50% inhibition at 10 µM
[4] = DRUGMATRIX: Serotonin (5-Hydroxytryptamine) 5-HT3 radioligand binding (ligand: [3H] GR-65630); assay type: cell membranes, Membrane; details: hek293; Not Active = under 50% inhibition at 10 µM
Carbonic anhydrase 2 = Carbonic anhydrase 2 (Homo sapiens, UniProt P00918); assay: DRUGMATRIX: Carbonic Anhydrase II enzyme inhibition (substrate: 4-Nitrophenyl acetate (4-NPA)); assay type: tissue-based, Erythrocyte; details: erythrocyte; Not Active = under 50% inhibition at 10 µM
[5] = biological target: T2, Cholecystokinin receptor type A (Homo sapiens, UniProt P32238); assay type: cell membranes, Membrane; details: 1321-n1; note: in other assays of this panel Not Active means under 50% inhibition at 10 µM
T2 sequence (P32238 whole entry): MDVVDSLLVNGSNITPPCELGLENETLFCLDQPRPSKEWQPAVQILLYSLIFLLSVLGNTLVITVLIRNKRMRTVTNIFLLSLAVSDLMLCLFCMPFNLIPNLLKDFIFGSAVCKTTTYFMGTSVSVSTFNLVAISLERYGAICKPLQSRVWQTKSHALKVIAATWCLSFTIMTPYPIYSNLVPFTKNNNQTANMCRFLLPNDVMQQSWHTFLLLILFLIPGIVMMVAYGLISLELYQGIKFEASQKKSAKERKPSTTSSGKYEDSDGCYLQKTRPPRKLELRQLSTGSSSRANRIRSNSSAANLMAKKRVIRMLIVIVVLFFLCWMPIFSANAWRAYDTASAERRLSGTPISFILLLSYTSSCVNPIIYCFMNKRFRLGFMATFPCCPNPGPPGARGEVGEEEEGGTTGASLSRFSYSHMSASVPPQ

Melanocortin receptor 4 = Melanocortin receptor 4 (Homo sapiens, UniProt P32245); assay type: cell membranes, Membrane; details: hek293; note: in other assays of this panel Not Active means under 50% inhibition at 10 µM
Chain of Melanocortin receptor 4 (P32245 whole entry): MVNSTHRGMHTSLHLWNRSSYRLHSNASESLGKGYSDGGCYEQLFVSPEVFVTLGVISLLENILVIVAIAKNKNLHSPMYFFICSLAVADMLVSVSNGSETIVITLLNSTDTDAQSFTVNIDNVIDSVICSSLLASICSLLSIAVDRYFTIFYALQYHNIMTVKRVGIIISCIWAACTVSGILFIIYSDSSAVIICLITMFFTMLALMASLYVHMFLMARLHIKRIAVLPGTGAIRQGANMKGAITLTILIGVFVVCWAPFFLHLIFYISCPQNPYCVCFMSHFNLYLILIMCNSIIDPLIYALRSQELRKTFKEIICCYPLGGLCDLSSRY

Molecule	Ki ([1]; hek293)	IC50 ([2]; cho-k1)	IC50 [3]	Ki [3]	IC50 [4]	Ki [4]	IC50 (Carbonic anhydrase 2)	IC50 [5]	IC50 (Melanocortin receptor 4)	IC50 ([1]; hek293)	IC50 ([1]; read-out: IC50) [µM]	Ki ([1]; read-out: Ki) [µM]	IC50 ([2]; read-out: IC50) [µM]	Ki ([2]; read-out: Ki) [µM]	Ki ([2]; cho-k1)	Ki (Carbonic anhydrase 2)	Ki [5]	Ki (Melanocortin receptor 4)
CC(=O)O[C@]1(C(C)=O)CC[C@H]2[C@@H]3C=C(Cl)C4=CC(=O)[C@@H]5C[C@@H]5[C@]4(C)[C@H]3CC[C@@]21C [CYPROTERONE ACETATE]	Not Active	Not Active	Not Active	Not Active	Not Active	Not Active	Not Active	Not Active	Not Active									
CN(Cc1cnc2nc(N)nc(N)c2n1)c1ccc(C(=O)N[C@@H](CCC(=O)O)C(=O)O)cc1 [METHOTREXATE]		Not Active	Not Active	Not Active	Not Active	Not Active	Not Active	Not Active	Not Active	Not Active								
C/C=C\c1ccc(O)c(OC)c1 [ISOEUGENOL]		Not Active	Not Active	Not Active	Not Active	Not Active	Not Active	Not Active	Not Active	Not Active								
Cc1cnc(C(=O)NCCc2ccc(S(=O)(=O)NC(=O)NC3CCCCC3)cc2)cn1 [GLIPIZIDE]		Not Active	Not Active	Not Active	Not Active	Not Active	Not Active	Not Active	Not Active	Not Active								
CC(CCc1ccc(O)cc1)NCCc1ccc(O)c(O)c1 (stereo not given) [DOBUTAMINE]			Not Active	Not Active	Not Active	Not Active	Not Active	Not Active	Not Active		0.114	0.056	1.94	1.12				
Nc1nc(Cl)nc2c1ncn2[C@H]1C[C@H](O)[C@@H](CO)O1 [CLADRIBINE]		Not Active	Not Active	Not Active	Not Active	Not Active	Not Active	Not Active	Not Active	Not Active								
Cc1cccc(Nc2cc(Cl)nc(SCC(=O)O)n2)c1C [PIRINIXIC ACID]		Not Active	Not Active	Not Active	Not Active	Not Active	Not Active	Not Active	Not Active	Not Active								
INSULIN HUMAN	Not Active	Not Active	Not Active	Not Active	Not Active	Not Active	Not Active	Not Active	Not Active	Not Active					Not Active	Not Active	Not Active	Not Active
CCn1cc(C(=O)O)c(=O)c2cc(F)c(N3CCNCC3)nc21 [ENOXACIN]		Not Active	Not Active	Not Active	Not Active	Not Active	Not Active	Not Active	Not Active	Not Active								
O=C(O)c1cc(=O)c2c(OCC(O)COc3cccc4oc(C(=O)O)cc(=O)c34)cccc2o1 [CROMOLYN]		Not Active	Not Active	Not Active	Not Active	Not Active	Not Active	Not Active	Not Active	Not Active								
CC(=O)OCC(CCn1cnc2cnc(N)nc21)COC(C)=O [FAMCICLOVIR]		Not Active	Not Active	Not Active	Not Active	Not Active	Not Active	Not Active	Not Active	Not Active								
O=P1(N(CCCl)CCCl)NCCCO1 (stereo not given) [CYCLOPHOSPHAMIDE ANHYDROUS]		Not Active	Not Active	Not Active	Not Active	Not Active	Not Active	Not Active	Not Active	Not Active								
